Measured values published in patent US20230146455A1, “TREATMENT OF INFLAMMATORY DISEASES WITH PEPTIDES AND PHARMACEUTICAL COMPOSITIONS” (Yuyu Pharma, Inc., priority 2020, published 2023).
Values joined by “and” are separate entries in the source; they are usually repeats but may differ in a detail not shown here. Equal values may be shown once. Where a SMILES comes first, the peptide text is derived from it. [ ]: non-standard residue; d: D form. Hyp = O=C(O)[C@@H]1C[C@@H](O)CN1

Test system: IL-1 alpha/IL-1F1
Test: Example 8 main study Luminex, LPS hPBMCs: IL-1 alpha/IL-1F1
Type: cell-based, human
Description: Human PBMCs were pretreated with YY-101, YDE-011, YDE-043 or reference compound; Xiidra® at various concentration (ranging from […] to 500 nM) for 2 h before stimulation. An equal volume of 0.5% DMSO was used as a vehicle control. Then, the cells were treated with LPS at 5 ug/ml, which was selected based on the pilot study. The supernatants from treated cells were harvested at 24 h and placed in a 96 well for Luminex cytokine & chemokine profiling using a Luminex 200 multiplex assay (Luminex; R&D system, USA).
The main study arm with triplicate wells per group in a 24-well plate: • 1. Blank • 2. PBMC: 0.5% DMSO • 3. PBMC+LPS (5 ug/ml) • 4. PBMC+YY-101 500 nM • 5. PBMC+YY-101 50 nM • 6. PBMC+YY-101 5 nM • 7. PBMC+YY-101 0.5 nM • 8. PBMC+LPS (5 ug/ml)+Xiidra® 500 nM • 9. PBMC+LPS (5 ug/ml)+Xiidra® 50 nM • 10. PBMC+LPS (5 ug/ml)+Xiidra® 5 nM • 11. PBMC+LPS (5 ug/ml)+Xiidra® 0.5 nM • 12. PBMC+LPS (5 ug/ml)+Xiidra® 0.05 nM • 13. PBMC+LPS (5 ug/ml)+Xiidra® 0.005 nM • 14. PBMC+LPS (5 ug/ml)+YY-101 500 nM • 15. PBMC+LPS (5 ug/ml)+YY-101 50 nM • 16. PBMC+LPS (5 ug/ml)+YY-101 5 nM • 17. PBMC+LPS (5 ug/ml)+YY-101 0.5 nM • 18. PBMC+LPS (5 ug/ml)+YY-101 0.05 nM • 19. PBMC+LPS (5 ug/ml)+YY-101 0.005 nM • 20. PBMC+LPS (5 ug/ml)+YDE-011 500 nM • 21. PBMC+LPS (5 ug/ml)+YDE-011 50 nM • 22. PBMC+LPS (5 ug/ml)+YDE-011 5 nM • 23. PBMC+LPS (5 ug/ml)+YDE-011 0.5 nM • 24. PBMC+LPS (5 ug/ml)+YDE-011 0.05 nM • 25. PBMC+LPS (5 ug/ml)+YDE-011 0.005 nM • 26. PBMC+LPS (5 ug/ml)+YDE-043 500 nM • 27. PBMC+LPS (5 ug/ml)+YDE-043 50 nM • 28. PBMC+LPS (5 ug/ml)+YDE-043 5 nM • 29. PBMC+LPS (5 ug/ml)+YDE-043 0.5 nM • 30. PBMC+LPS (5 ug/ml)+YDE-043 0.05 nM • 31. PBMC+LPS (5 ug/ml)+YDE-043 0.005 nM
Multiplex assay was used to measure 30 cytokines and chemokines. The 1:200 diluted cell supernatant and serial dilution of the standard were dispensed into a 96 well plate at 50 ul/well. Then, the pre-mixed cocktail of antibody-coated magnetic beads was dispensed at 50 ul/well and incubated at room temperature for 2 h in a horizontal orbital microplate shaker at 800±500 rpm. The beads were washed using a magnetic device to prevent loss. The biotin-antibody was dispensed in 50 ul of each well and incubated at room temperature for 1 h in a shaker at 800±500 rpm. After washing, streptavidin-PE was added at 50 ul/well and incubated at room temperature for 30 min in a shaker under the same conditions. Finally, after washing, wash buffer (100 ul/well) was added to the plate and incubated in a shaker for 2 min. The Luminex™ 200 setting were set according to the manufacturer's protocol. The data was calculated with a standard five-parameter logistic nonlinear regression analysis of the data (xPonent software 4.2, USA). Results were presented as concentration (ng/ml or pg/ml).

[1] = PBMC + LPS(5 ug/ml) + test article 0.005 nM, Mean
[2] = PBMC + LPS(5 ug/ml) + test article 0.005 nM, individual replicates
[3] = PBMC + LPS(5 ug/ml) + test article 0.05 nM, Mean
[4] = PBMC + LPS(5 ug/ml) + test article 0.05 nM, individual replicates
[5] = PBMC + LPS(5 ug/ml) + test article 0.5 nM, Mean
[6] = PBMC + LPS(5 ug/ml) + test article 0.5 nM, individual replicates
[7] = PBMC + LPS(5 ug/ml) + test article 5 nM, Mean
[8] = PBMC + LPS(5 ug/ml) + test article 5 nM, individual replicates
[9] = PBMC + LPS(5 ug/ml) + test article 50 nM, Mean
[10] = PBMC + LPS(5 ug/ml) + test article 50 nM, individual replicates
[11] = PBMC + LPS(5 ug/ml) + test article 500 nM, Mean
[12] = PBMC + LPS(5 ug/ml) + test article 500 nM, individual replicates
[13] = PBMC + test article 0.5 nM, no LPS, Mean
[14] = PBMC + test article 0.5 nM, no LPS, individual replicates (1st, 2nd)
[15] = PBMC + test article 5 nM, no LPS, Mean
[16] = PBMC + test article 5 nM, no LPS, individual replicates (1st, 2nd)
[17] = PBMC + test article 0.05 uM, no LPS, Mean
[18] = PBMC + test article 0.05 uM, no LPS, individual replicates (1st, 2nd)
[19] = PBMC + test article 50 nM, no LPS, Mean
[20] = PBMC + test article 50 nM, no LPS, individual replicates (1st, 2nd)
[21] = PBMC + test article 500 nM, no LPS, Mean
[22] = PBMC + test article 500 nM, no LPS, individual replicates (1st, 2nd)

CC(C)C[C@H](NC(=O)CNC(=O)[C@H](CC(=O)O)NC(=O)[C@H](CCC(N)=O)NC(=O)CNC(=O)[C@@H]1C[C@@H](O)CN1)C(=O)N[C@@H](C)C(=O)NCC(=O)N1CCC[C@H]1C(=O)N[C@@H](CCCCN)C(=O)O [YY-101] (H-[Hyp]GQDGLAGPK-OH; N-terminus and C-terminus assumed)
IL-1 alpha/IL-1F1 Concentration [1]: 424.2 pg/mL | IL-1 alpha/IL-1F1 MFI [1]: 28.3 | IL-1 alpha/IL-1F1 Concentration [2]: 414.2 pg/mL and 383.2 pg/mL and 475.3 pg/mL | IL-1 alpha/IL-1F1 MFI [2]: 28.0 and 27.0 and 30.0 | IL-1 alpha/IL-1F1 Concentration [3]: 479.4 pg/mL | IL-1 alpha/IL-1F1 MFI [3]: 30.2 | IL-1 alpha/IL-1F1 Concentration [4]: 414.2 pg/ml (2×) and 609.8 pg/ml | IL-1 alpha/IL-1F1 MFI [4]: 28.0 (2×) and 34.5 | IL-1 alpha/IL-1F1 Concentration [5]: 455.0 pg/mL | IL-1 alpha/IL-1F1 MFI [5]: 29.3 | IL-1 alpha/IL-1F1 Concentration [6]: 460.1 pg/ml (2×) and 444.9 pg/ml | IL-1 alpha/IL-1F1 MFI [6]: 29.5 (2×) and 29.0 | IL-1 alpha/IL-1F1 Concentration [7]: 485.3 pg/mL | IL-1 alpha/IL-1F1 MFI [7]: 30.3 | IL-1 alpha/IL-1F1 Concentration [8]: 444.9 pg/mL and 475.3 pg/mL and 535.6 pg/mL | IL-1 alpha/IL-1F1 MFI [8]: 29.0 and 30.0 and 32.0 | IL-1 alpha/IL-1F1 Concentration [9]: 429.2 pg/mL | IL-1 alpha/IL-1F1 MFI [9]: 28.5 | IL-1 alpha/IL-1F1 Concentration [10]: 383.2 pg/mL and 398.7 pg/mL and 505.6 pg/mL | IL-1 alpha/IL-1F1 MFI [10]: 27.0 and 27.5 and 31.0 | IL-1 alpha/IL-1F1 Concentration [11]: 449.6 pg/mL | IL-1 alpha/IL-1F1 MFI [11]: 29.2 | IL-1 alpha/IL-1F1 Concentration [12]: 460.1 pg/mL and 505.6 pg/mL and 383.2 pg/mL | IL-1 alpha/IL-1F1 MFI [12]: 29.5 and 31.0 and 27.0 | IL-1 alpha/IL-1F1 Concentration [13]: 155.5 pg/mL | IL-1 alpha/IL-1F1 MFI [13]: 20.0 | IL-1 alpha/IL-1F1 Concentration [14]: 155.5 pg/mL | IL-1 alpha/IL-1F1 MFI [14]: 20.0 | IL-1 alpha/IL-1F1 Concentration [15]: 155.5 pg/mL | IL-1 alpha/IL-1F1 MFI [15]: 20.0 | IL-1 alpha/IL-1F1 Concentration [16]: 155.5 pg/mL | IL-1 alpha/IL-1F1 MFI [16]: 20.0 | IL-1 alpha/IL-1F1 Concentration [17]: 92.0 pg/mL | IL-1 alpha/IL-1F1 MFI [17]: 18.3 | IL-1 alpha/IL-1F1 Concentration [18]: 45.8 pg/mL and 138.1 pg/mL | IL-1 alpha/IL-1F1 MFI [18]: 17.0 and 19.5 | IL-1 alpha/IL-1F1 Concentration [19]: 111.1 pg/mL | IL-1 alpha/IL-1F1 MFI [19]: 18.8 | IL-1 alpha/IL-1F1 Concentration [20]: 138.1 pg/mL and 84.2 pg/mL | IL-1 alpha/IL-1F1 MFI [20]: 19.5 and 18.0 | IL-1 alpha/IL-1F1 Concentration [21]: 84.2 pg/mL | IL-1 alpha/IL-1F1 MFI [21]: 18.0 | IL-1 alpha/IL-1F1 Concentration [22]: 84.2 pg/mL | IL-1 alpha/IL-1F1 MFI [22]: 18.0
